Test results taken from patent publication US20260053847A1, “HYDROGEN-GAS-CONTAINING DRUG FOR CAUSAL TREATMENT OF ALZHEIMER'S DISEASE (DISEASE-MODIFYING DRUG)” (H2 GLOBAL GROUP S.R.O., priority 2022, published 2026).
Like-named read-outs stand apart in the source and are kept apart here.

How the values were obtained:
[1] = system: test subjects with the alipoprotein E4 (APOE4) genotype exhibiting mild cognitive impairment (MCI); conditions: APOE4 genotype subgroup of randomized clinical trials; Patent Document 1; cited from earlier work
[2] = system: patients with Alzheimer's disease; conditions: for DTI area at FA value of 0.2 (neural quality): FIG. 3; for normalised DTI value FA=0.2/FA=0.1, statistical analysis: Student's t-test
Protocol: (§1) For explanation, we note that MRIs of the brain were performed • at the radiology department of Nishijima Hospital and the results were sent to the doctors via an electronic charting system. Digital tractographic imaging was performed using Neuro3D and GRAPPA technology, with five starting points set at locations where nerve bundles passed through the entire hippocampus. DTI was obtained at fractional anisotropy (FA) values of 0.1 and 0.2. The size of the pathway (tract) was calculated from the number of pixels in the pathway (tract) display, the number of pixels was calculated using Image J software. DTI at a fractional anisotropy (FA) value of 0.1 reflects visualization of the neuron as a whole, DTI reflects at a fractional anisotropy (FA) value of 0.2 • to the neural quality of the height visualisation.
For example, the progression of nerve fibers in the hippocampal region of the temporal lobe of the subject's brain can be monitored using diffusion tensor imaging [DTI] and the area of nerve fibers monitored can be analyzed using the process procedures described below. • i) the process of generating a diffusion tensor imaging [DTI] image extracted from the course of nerve fibers in the hippocampal region of the temporal lobe of the subject's brain; • ii) the process of setting five control inputs at regular intervals so that the nerve fiber pathways extracted by process (i) pass through them; • iii) a process in which the fractional anisotropy (FA) is set to 0.2 and an image of the extracted nerve fibers in the hippocampus region is obtained; • iv) a process in which the area of the nerve fiber path is calculated from the number of pixels in the image obtained during the process iii); • v) the process of detecting the manifestations of dementia or predementia based on the measured values of the area of nerve fiber pathways.
In the method described above, the hippocampal region refers to the hippocampal region and the parahippocampal gyrus region; the extracted images of nerve fibers in the hippocampal region are from the lateral and axial views.
When the fractional anisotropy (FA) value is set to 0.1, the extracted image of nerve fibers in the hippocampus region is obtained, and in the process of calculating the area of nerve fiber pathways from the number of pixels in a given image, the area of nerve pathways at FA 0.2 is divided by the area of nerve pathways at FA 0.1 to calculate the FA ratio (normalization).
(§2) A mixture of hydrogen gas 3% (v/v) and oxygen gas 21% (v/v) was administered to 8 patients with Alzheimer's disease for 1 hour 2× per day. Inhalation was continued for a period of 6 months, after which hydrogen gas inhalation was discontinued and progress monitored.
(§3) Treatment efficacy was assessed by clinical assessment using ADAS-cog and neural quality (integrity) was assessed by MRI using DTI.
For a more accurate quantitative analysis, normalization was performed for each measurement. Data variability was corrected by dividing the F=0.2 value by the simultaneous F=0.1 value. The number of pixels in the corresponding neuronal bundle pathway at FA=0.2 was normalized (divided) by the number of pixels at FA=0.1, and the mean and standard error were obtained from the normalized values from 4 lateral and axial images from the right and left hemispheres of each patient. Statistical significance was assessed by Student's t-test, * indicates outputs for p¿ 0.05, ** for p¿ 0.01, indicating significant statistical significance of the results.

[3] = system: patients with Alzheimer's disease; conditions: for changes in ADAS-cog scores versus control group not inhaling hydrogen gas: FIG. 2
Protocol: The ADAS-cog assesses and scores word list equipment, speaking ability, verbal comprehension, speech difficulties in spontaneous speech, completion of commands, object and finger naming, constructional tasks, ideomotor skills, orientation, word recognition, and ability to reproduce test instructions. The range of scores is from 0 to 70, the higher the score, the greater the cognitive impairment (normal→several).
as §2, §3
Statistical significance was assessed by Student's t-test, * indicates outputs for p¿ 0.05, ** for p¿ 0.01, indicating significant statistical significance.

[4] = Phase I clinical trials; cited from earlier work
[5] = system: patient with a severe form of Alzheimer's disease; conditions: one patient
Protocol: as §1
(§4) A patient with a severe form of Alzheimer's disease with incontinence of stool and urine was given an inhaled gas mixture containing 3% (v/v) hydrogen gas and 21% (v/v) oxygen gas 2× daily for one hour.
The neural quality was assessed using advanced magnetic resonance imaging technology using the diffusion tensor imaging procedure.

[6] = system: patient with a severe form of Alzheimer's disease with incontinence of stool and urine; conditions: one patient
Protocol: as §4
In more detail, the patient was a person who was diagnosed with typical Alzheimer's disease in 2011 and was administered Alzheimer's drugs such as Donepezil, Galantamine, Lithium, etc. The condition was progressively worsening, the ADAS-cog score was 48/70, it was a severe form of Alzheimer's disease.
The patient was unable to recall their date of birth at that time, but was able to walk to the toilet to urinate or defecate on their own. Due to the rapid deterioration of their condition, other treatments were not possible, so hydrogen gas inhalation was started as an adjunctive/complementary therapy on Apr. 19, 2019.

[HH] [hydrogen gas, Molecular hydrogen]
condition of subjects with mild cognitive impairment [1]: improved the condition
normalised DTI value FA=0.2/FA=0.1 ([2]; 1 year after end of treatment, compared with pre-treatment condition, FIG. 4): beneficial effect, compared with the pre-treatment condition, persisting
DTI area at FA value of 0.2 (neural quality) ([2]; 6 months after cessation of hydrogen gas inhalation): persisted
normalised DTI value FA=0.2/FA=0.1, statistical analysis ([2]; 6 months after the end of treatment, FIG. 4): significant effect persisting
DTI area at FA value of 0.2 (neural quality) ([2]; after 6 months of continuous hydrogen gas inhalation, 9 patients as printed): neural quality was improved
normalised DTI value FA=0.2/FA=0.1, statistical analysis ([2]; after 6 months of inhalation, FIG. 4): significant effect
DTI area at FA value of 0.2 (neural quality) ([2]; one year after the end of inhalation, compared with start of inhalation): able to maintain a favorable result compared with the condition at the start of inhalation
changes in ADAS-cog scores versus control group not inhaling hydrogen gas ([3]; 6 months after cessation of inhalation, control 19 patients from past data): improvement persisted
average change in clinical symptoms assessed by ADAS-cog (cognitive function) ([3]; 8 patients, hydrogen gas 3% (v/v) + oxygen 21% (v/v), 1 hour 2x per day, continuous inhalation for 6 months, FIG. 1): an initial deterioration, but soon showed an improvement in cognitive function
average change in clinical symptoms assessed by ADAS-cog (cognitive impairment) ([3]; 8 patients, six months or one year after cessation of 6-month inhalation, compared to before treatment, FIG. 1): marked improvement in cognitive impairment
statistical significance of effect on ADAS-cog versus control and on normalised DTI ([3]; after hydrogen gas inhalation, FIGS. 2 and 4): statistically significant effect
changes in ADAS-cog scores versus control group not inhaling hydrogen gas ([3]; one year after cessation of treatment, compared to pre-treatment status): the improvement persisted compared to the pre-treatment status
safety of hydrogen gas inhalation [4]: safety of hydrogen gas inhalation has been confirmed
DTI display at FA=0.2 (qualitative neural quality) ([5]; FIG. 5D): new nerves have appeared
area of nerve fibers visualized in the DTI at FA=0.2 ([5]; after 2 years of inhalation, FIG. 5): increased
changes in DTI over time (effect of inhalation) ([5]; after 6 months of hydrogen gas inhalation, FIG. 5): the effect did not appear
number of pixels (DTI area) at F=0.1 and F=0.2 ([5]; after two years of inhalation (29 to 53 months), FIG. 6): slight increase in the number of pixels
ability to urinate and defecate (incontinence of stool and urine) ([6]; ADAS-cog 48/70, 3% (v/v) hydrogen + 21% (v/v) oxygen 2x daily for one hour, after two years of inhalation): able to urinate and defecate on their own
fecal incontinence, frequency or severity of difficulties ([6]; January 2020, inhalation started Apr. 19, 2019): no improvement in the frequency or severity of difficulties
independent defecation ([6]; since Nov. 18, 2020, inhalation started Apr. 19, 2019): able to go and defecate on their own in almost all cases
